# Columns and labels:
# Assay in all cases: relative viability (nuclei count vs DMSO), 5 days (fraction); higher = more cells survive
# [1] = compound: CC(C)(C)c1nc(-c2cccc(NS(=O)(=O)c3c(F)cccc3F)c2F)c(-c2ccnc(N)n2)s1 [Dabrafenib] + Cc1nc(NC(=O)N2CCC[C@H]2C(N)=O)sc1-c1ccnc(C(C)(C)C(F)(F)F)c1 [Alpelisib] (partner 2 µM)
# In short: (§1)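 For relative viability, nuclei counts in treated wells were divided by those in vehicle wells. Lung cancer cell lines had been pin-tool dosed in 1536-well plates the day after seeding and cultured for 5 days, then fixed and stained in one step (final 0.05% Triton X-100, 1% formaldehyde, 1 ug/ml Hoechst) and imaged at 4×. Doses were one drug alone or a fixed anchor-drug dose plus five library-drug doses (not always all listed) in √10 steps, and values are duplicate-plate medians.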
# [2] = compound: CC(C)(C)c1nc(-c2cccc(NS(=O)(=O)c3c(F)cccc3F)c2F)c(-c2ccnc(N)n2)s1 [Dabrafenib] + Cc1nc(Nc2ncc(C(=O)Nc3c(C)cccc3Cl)s2)cc(N2CCN(CCO)CC2)n1 [Dasatinib] (partner 0.075 µM)
# In short: as §1
# [3] = compound: NC(=O)c1ccc(N(C(N)=O)c2c(F)cccc2F)nc1-c1ccc(F)cc1F [VX-702] + COc1cc2c(Oc3ccc(NC(=O)C4(C(=O)Nc5ccc(F)cc5)CC4)cc3F)ccnc2cc1OCCCN1CCOCC1 [Foretinib] (partner 0.25 µM)
# In short: as §1
# [4] = compound: NC(=O)c1ccc(N(C(N)=O)c2c(F)cccc2F)nc1-c1ccc(F)cc1F [VX-702] + C[C@@H](Oc1cc(-c2cnn(C3CCNCC3)c2)cnc1N)c1c(Cl)ccc(F)c1Cl [Crizotinib] (partner 1 µM)
# In short: as §1
Cell Line,relative viability ([1]; first compound 0.009487 µM),relative viability ([1]; first compound 0.03 µM),relative viability ([1]; first compound 0.09487 µM),relative viability ([1]; first compound 0.3 µM),relative viability ([2]; first compound 0.009487 µM),relative viability ([2]; first compound 0.03 µM),relative viability ([2]; first compound 0.09487 µM),relative viability ([2]; first compound 0.3 µM),relative viability ([3]; first compound 0.02 µM),relative viability ([3]; first compound 0.2 µM),relative viability ([3]; first compound 0.6325 µM),relative viability ([3]; first compound 2 µM),relative viability ([4]; first compound 0.02 µM),relative viability ([4]; first compound 0.2 µM),relative viability ([4]; first compound 0.6325 µM),relative viability ([4]; first compound 2 µM),relative viability ([1]; first compound 0.003 µM),relative viability ([2]; first compound 0.003 µM)
NCI-H441,0.915,0.817,0.677,0.692,0.623,0.689,0.55,0.456,0.955,0.774,0.984,1.12,0.715,0.707,0.711,0.838,,
NCI-H460,0.599,0.394,0.567,0.592,0.529,0.615,0.509,0.571,1.06,0.998,1.12,1.08,0.835,0.951,0.958,1.05,0.508,0.43
NCI-H520,0.881,0.708,0.881,0.914,0.24,0.199,0.179,0.177,0.876,0.73,0.607,0.744,0.887,0.687,0.784,0.966,0.934,0.223
NCI-H596,0.578,0.427,0.534,0.566,0.624,0.742,0.544,0.646,0.79,0.82,1.11,0.992,0.914,0.986,1.02,1.19,0.408,
NCI-H647,1.09,1.12,0.945,1.03,0.161,0.305,0.188,0.159,1.22,1.08,1,1.4,1.14,1,1.12,1.05,,0.0445
NCI-H650,1.09,0.953,0.906,0.706,0.332,0.402,0.314,0.294,1.01,,1.11,1.25,0.669,,0.761,1.04,,
NCI-H661,0.707,0.382,0.432,0.687,0.821,1.04,0.921,1.06,1.11,1.08,1.12,1.1,1.08,0.977,0.939,1.11,0.259,0.591
NCI-H727,0.757,0.519,0.647,0.638,0.479,0.434,,0.568,0.936,0.806,0.824,0.813,0.826,0.745,0.841,0.961,,
NCI-H838,1.07,0.861,0.93,1.15,0.287,,0.364,0.279,1.02,1.01,1.13,1.2,0.779,0.755,0.807,0.976,1.01,0.254
NCI-H1355,0.935,0.608,,0.809,0.692,0.749,0.651,0.703,0.931,1.01,0.923,1.01,1.09,1.05,1.01,1.04,,
NCI-H1437,1,1.04,1.02,1.06,0.372,0.256,0.39,0.482,1.31,1.3,1.35,1.41,0.916,0.871,0.873,1.18,1.03,0.281
NCI-H1563,0.971,0.853,0.777,1.06,0.46,0.459,0.461,0.456,1.04,0.914,1,0.822,0.848,0.875,0.83,0.865,0.944,0.408
NCI-H1651,1.01,0.859,0.935,0.904,0.411,0.373,0.442,0.435,0.814,0.794,0.824,0.803,0.79,0.889,0.831,0.935,0.994,0.355
NCI-H1666,,0.962,0.973,1.11,0.775,0.798,0.809,0.822,0.992,,1.02,1.06,1.1,0.923,1.03,1.12,0.988,0.84
NCI-H1734,0.775,0.585,0.573,0.688,0.478,0.454,0.313,0.387,0.791,0.729,0.704,0.813,0.593,0.55,0.573,0.71,,
NCI-H1755,0.937,0.734,0.904,0.875,0.38,0.405,0.403,0.337,0.93,0.952,0.807,0.944,0.919,0.784,0.894,0.972,0.907,0.419
NCI-H1915,1.05,0.979,0.897,0.984,0.318,0.386,0.296,0.345,1.1,1.06,1.06,1.17,0.868,0.845,0.913,0.944,1.03,0.316
NCI-H1944,0.877,0.745,0.84,0.838,0.24,0.236,0.244,0.178,0.812,0.821,0.798,0.71,0.963,1.01,0.985,0.829,0.785,0.197

Cell Line,relative viability ([1]; first compound 0.009487 µM),relative viability ([1]; first compound 0.03 µM),relative viability ([1]; first compound 0.09487 µM),relative viability ([1]; first compound 0.3 µM),relative viability ([2]; first compound 0.009487 µM),relative viability ([2]; first compound 0.03 µM),relative viability ([2]; first compound 0.09487 µM),relative viability ([2]; first compound 0.3 µM),relative viability ([3]; first compound 0.02 µM),relative viability ([3]; first compound 0.2 µM),relative viability ([3]; first compound 0.6325 µM),relative viability ([3]; first compound 2 µM),relative viability ([4]; first compound 0.02 µM),relative viability ([4]; first compound 0.2 µM),relative viability ([4]; first compound 0.6325 µM),relative viability ([4]; first compound 2 µM),relative viability ([1]; first compound 0.003 µM),relative viability ([2]; first compound 0.003 µM)
NCI-H1975,0.687,0.635,0.624,0.535,0.345,0.363,0.344,0.392,0.969,0.915,0.943,1.09,0.919,0.982,0.889,1.14,0.68,0.372
NCI-H1993,0.618,0.534,0.686,0.778,0.665,0.607,0.845,0.856,0.717,0.773,0.754,0.693,0.882,0.717,0.852,0.792,0.689,0.627
NCI-H2009,1.08,1.05,0.886,0.934,0.308,0.268,0.209,0.224,1.28,1.28,1.28,1.38,1.11,1.13,1.18,1.25,1.1,0.228
NCI-H2023,0.614,0.635,0.614,0.801,0.589,0.586,0.516,0.673,0.761,0.722,0.724,1,0.586,0.563,0.555,0.698,0.668,0.559
NCI-H2085,1.02,0.93,0.997,0.954,0.28,0.216,0.288,0.188,1.05,0.898,0.967,0.968,0.921,0.926,1.03,0.908,0.949,0.246
NCI-H2087,1.12,1.11,0.823,0.831,0.894,0.798,0.519,0.657,1.18,0.915,1.12,1.23,0.847,0.862,0.867,0.739,1.19,
NCI-H2126,0.78,0.74,0.796,0.777,0.642,0.681,0.713,0.69,1.15,1.1,1.21,1.18,1.04,1.13,1.05,1.08,0.706,0.582
NCI-H2170,0.848,0.713,0.733,0.95,0.483,0.53,0.618,0.544,1.07,1,1.08,1.03,1.28,1.09,1.24,1.4,0.91,0.597
NCI-H2228,0.858,0.813,0.807,0.896,0.482,0.635,0.506,0.506,0.889,0.851,1.07,0.887,0.628,0.536,0.394,0.45,0.585,
NCI-H2347,1.01,0.887,0.965,0.991,0.309,0.308,0.448,0.38,1.49,0.828,1.16,1.03,0.733,0.763,0.858,0.731,0.561,
NCI-H2405,0.768,,0.644,0.701,0.221,,0.181,0.172,1.08,0.98,0.965,1.02,0.791,0.813,0.774,0.99,,
NCI-H3122,0.774,0.897,0.912,0.89,0.767,0.908,0.793,0.75,0.964,0.946,1.01,0.923,0.268,0.238,0.251,0.258,0.877,0.773
PC-3 [JPC-3],0.996,1.02,0.907,0.956,1.06,0.925,0.881,1.03,1.11,1.02,1.1,1.05,0.974,0.966,1.03,1.04,1.01,0.882
PC-14,0.946,0.938,0.892,0.833,0.297,0.271,0.251,0.281,1.02,0.956,0.986,1.08,0.874,0.86,0.818,1.02,0.901,0.276
RERF-LC-KJ,0.979,0.781,0.848,0.953,0.919,0.92,0.799,0.989,0.995,0.923,0.984,0.934,0.876,0.849,0.825,0.875,0.73,0.73
SK-LU-1,1,0.869,0.714,0.691,0.185,0.193,0.173,0.188,0.917,0.786,0.777,1.01,0.96,0.751,0.934,0.963,0.915,
SK-MES-1,0.828,0.933,0.683,0.611,0.412,0.417,0.317,0.289,0.935,0.97,0.934,0.911,0.989,0.94,0.986,1.09,0.91,0.323
SW 1573,0.931,0.74,0.663,0.669,0.557,0.457,0.279,0.379,1.05,0.876,0.784,0.679,0.8,0.721,0.773,0.784,0.765,0.263

# — the supplement of paper PMC10307832
